# System: RSV A2
# Test: RSV antiviral cytopathic effect (CPE) assay in HEp2 cells, MTT readout
# Type: cell-based, respiratory syncytial virus
# Settings: HEp2 cells infected with RSV A2, moi ~0.01, 5 days, inhibition of CPE by 50%; read-out: Activity Range (RSV A2 EC50 mean values)
# Protocol: RSV Antiviral Assay Protocol
# Compounds of the invention were tested for their antiviral activity against respiratory syncytial virus. Cytopathic effect (CPE) assays were performed essentially as described in the literature (see, for example, Watanabe et al, 1994, J. Virological Methods, 48:257). Serial dilutions of the test compounds were made in 96 well plates. HEp2 cells (1.0×10^4 cells/well) were infected with RSV at a low multiplicity of infection (e.g. RSV A2 at an moi of ˜0.01) and added to plates to assess antiviral activity. Uninfected HEp2 cells were used to assess compound cytotoxicity. Assays were incubated for 5 days at 37° C. in a 5% CO2 atmosphere. The extent of CPE was determined via metabolism of the vital dye 3-(4,5-dimethylthiaxol-2-yl)-2,5-diphenyltetrazolium bromide (MTT). MTT (1 mg/ml) was added to each well and plates incubated for 2 hours incubation at 37° C. Wells were aspirated, iso-propanol (200 μL) was added and absorbance values read at 540/650 nm. Compound concentrations that inhibited CPE by 50% (EC50) and developed cytotoxicity (CC50) were calculated using non-linear regression analysis.
# In the inventors' experience, replicate EC50 values usually fall within three standard deviations of the mean.
row,Molecule,EC50
1,"11a-(4-fluorophenyl)-1-(furan-2-ylacetyl)-2,3,11,11a-tetrahydro-1H,5H-imidazo[1,2-a]thieno[3′,2′:4,5]pyrrolo[1,2-d]pyrazin-5-one [Compound 22]",> 10000 nM

# Same assay, conditions: human respiratory syncytial virus, HEp-2, 120 h; HEp2 cells infected with RSV A2, moi ~0.01, 5 days, inhibition of CPE by 50%; read-out: Activity Range (RSV A2 EC50 mean values)
row,Molecule,EC50
1,"CC(C)C(=O)N1CCN2C(=O)c3cc4ccsc4n3CC21c1ccc(F)cc1 (stereo not drawn) [Compound 17, 11a-(4-fluorophenyl)-1-(2-methylpropanoyl)-2,3,11,11a-tetrahydro-1H,5H-imidazo[1,2-a]thieno[3′,2′:4,5]pyrrolo[1,2-d]pyrazin-5-one]",> 10000 nM
2,"O=C1c2cc3ccsc3n2CC2(c3ccc(F)cc3)N1CCN2S(=O)(=O)c1ccccc1 (stereo not drawn) [Compound 25, 11a-(4-fluorophenyl)-1-(phenylsulfonyl)-2,3,11,11a-tetrahydro-1H,5H-imidazo[1,2-a]thieno[3′,2′:4,5]pyrrolo[1,2-d]pyrazin-5-one]",> 10000 nM
3,"COc1ccc(C23Cn4c(cc5ccsc54)C(=O)N2CCN3C(=O)c2conc2C)cc1 (stereo not drawn) [Compound 1, 11a-(4-methoxyphenyl)-1-[(3-methyl-1,2-oxazol-4-yl)carbonyl]-2,3,11,11a-tetrahydro-1H,5H-imidazo[1,2-a]thieno[3′,2′:4,5]pyrrolo[1,2-d]pyrazin-5-one]",≤ 49 nM
4,"Cc1nocc1C(=O)N1CCN2C(=O)c3cc4ncccc4n3CC12c1ccc(F)cc1 (stereo not drawn) [Compound 12, 12a-(4-fluorophenyl)-1-[(3-methyl-1,2-oxazol-4-yl)carbonyl]-2,3,12,12a-tetrahydro-1H,5H-imidazo[1,2-a]pyrido[2′,3′:4,5]pyrrolo[1,2-d]pyrazin-5-one]",100 to 499 nM
5,"Cc1nocc1C(=O)N1CCN2C(=O)c3cc4cccnc4n3CC12c1ccc(F)cc1 (stereo not drawn) [Compound 11, 12a-(4-fluorophenyl)-1-[(3-methyl-1,2-oxazol-4-yl)carbonyl]-2,3,12,12a-tetrahydro-1H,5H-imidazo[1,2-a]pyrido[3′,2′:4,5]pyrrolo[1,2-d]pyrazin-5-one]",≤ 49 nM
6,"Cn1nc(C(C)(C)C)cc1C(=O)N1CCN2C(=O)c3cc4ccsc4n3CC12c1ccc(F)cc1 (stereo not drawn) [Compound 20, 1-[(3-tert-butyl-1-methyl-1H-pyrazol-5-yl)carbonyl]-11a-(4-fluorophenyl)-2,3,11,11a-tetrahydro-1H,5H-imidazo[1,2-a]thieno[3′,2′:4,5]pyrrolo[1,2-d]pyrazin-5-one]",> 10000 nM
7,"Cc1ccc(C23Cn4c(cc5cccnc54)C(=O)N2CCN3C(=O)c2conc2C)cc1 (stereo not drawn) [Compound 10, 1-[(3-methyl-1,2-oxazol-4-yl)carbonyl]-12a-(4-methylphenyl)-2,3,12,12a-tetrahydro-1H,5H-imidazo[1,2-a]pyrido[3′,2′:4,5]pyrrolo[1,2-d]pyrazin-5-one]",≤ 49 nM
8,"COc1ccc(C23Cn4c(cc5ncccc54)C(=O)N2CCN3C(=O)c2conc2C)cc1 (stereo not drawn) [Compound 9, 12a-(4-methoxyphenyl)-1-[(3-methyl-1,2-oxazol-4-yl)carbonyl]-2,3,12,12a-tetrahydro-1H,5H-imidazo[1,2-a]pyrido[2′,3′:4,5]pyrrolo[1,2-d]pyrazin-5-one]",100 to 499 nM
9,"COc1ccc(C23Cn4c(cc5[nH]c(C)nc54)C(=O)N2CCN3C(=O)c2conc2C)cc1 (stereo not drawn) [Compound 2, 5a-(4-methoxyphenyl)-2-methyl-6-[(3-methyl-1,2-oxazol-4-yl)carbonyl]-5a,6,7,8-tetrahydro-5H-imidazo[1,2-a]imidazo[4′,5′:4,5]pyrrolo[1,2-d]pyrazin-10(1H)-one]",≤ 49 nM
10,"Cc1cc(C(=O)N2CCN3C(=O)c4cc5ccsc5n4CC23c2ccc(F)cc2)no1 (stereo not drawn) [Compound 18, 11a-(4-fluorophenyl)-1-[(5-methyl-1,2-oxazol-3-yl)carbonyl]-2,3,11,11a-tetrahydro-1H,5H-imidazo[1,2-a]thieno[3′,2′:4,5]pyrrolo[1,2-d]pyrazin-5-one]",> 10000 nM
11,"Cc1ccc(C23Cn4c(cc5ccsc54)C(=O)N2CCN3C(=O)c2conc2C)cn1 (stereo not drawn) [Compound 13, 1-[(3-methyl-1,2-oxazol-4-yl)carbonyl]-11a-(6-methylpyridin-3-yl)-2,3,11,11a-tetrahydro-1H,5H-imidazo[1,2-a]thieno[3′,2′:4,5]pyrrolo[1,2-d]pyrazin-5-one]",≤ 49 nM
12,"O=C1c2cc3ccsc3n2CC2(c3ccc(F)cc3)N1CCN2S(=O)(=O)Cc1ccccc1 (stereo not drawn) [Compound 26, 1-(benzylsulfonyl)-11a-(4-fluorophenyl)-2,3,11,11a-tetrahydro-1H,5H-imidazo[1,2-a]thieno[3′,2′:4,5]pyrrolo[1,2-d]pyrazin-5-one]",> 10000 nM
13,"O=C1c2cc3ccsc3n2CC2(c3ccc(F)cc3)N1CCN2C(=O)C1CC1 (stereo not drawn) [Compound 16, 1-(cyclopropylcarbonyl)-11a-(4-fluorophenyl)-2,3,11,11a-tetrahydro-1H,5H-imidazo[1,2-a]thieno[3′,2′:4,5]pyrrolo[1,2-d]pyrazin-5-one]",> 10000 nM
14,"O=C1c2cc3ccsc3n2CC2(c3ccc(F)cc3)N1CCN2C(=O)C1CCCCC1 (stereo not drawn) [Compound 14, 1-(cyclohexylcarbonyl)-11a-(4-fluorophenyl)-2,3,11,11a-tetrahydro-1H,5H-imidazo[1,2-a]thieno[3′,2′:4,5]pyrrolo[1,2-d]pyrazin-5-one]",> 10000 nM
15,"O=C(CC1CCCCC1)N1CCN2C(=O)c3cc4ccsc4n3CC12c1ccc(F)cc1 (stereo not drawn) [Compound 19, l-(cyclohexylacetyl)-11a-(4-fluorophenyl)-2,3,11,11a-tetrahydro-1H,5H-imidazo[1,2-a]thieno[3′,2′:4,5]pyrrolo[1,2-d]pyrazin-5-one]",> 10000 nM
16,"O=C(NC1CCCCC1)N1CCN2C(=O)c3cc4ccsc4n3CC12c1ccc(F)cc1 (stereo not drawn) [Compound 24, N-cyclohexyl-11a-(4-fluorophenyl)-5-oxo-2,3,11,11a-tetrahydro-1H,5H-imidazo[1,2-a]thieno[3′,2′:4,5]pyrrolo[1,2-d]pyrazine-1-carboxamide]",> 10000 nM
17,"Cc1ccc(C23Cn4c(cc5ccsc54)C(=O)N2CCN3C(=O)c2conc2C)cc1 (stereo not drawn) [Compound 7, 1-[(3-methyl-1,2-oxazol-4-yl)carbonyl]-11a-(4-methylphenyl)-2,3,11,11 a-tetrahydro-1H,5H-imidazo[1,2-a]thieno[3′,2′:4,5]pyrrolo[1,2-d]pyrazin-5-one]",≤ 49 nM
18,"O=C(NCc1ccccc1)N1CCN2C(=O)c3cc4ccsc4n3CC12c1ccc(F)cc1 (stereo not drawn) [Compound 23, N-benzyl-11a-(4-fluorophenyl)-5-oxo-2,3,11,11a-tetrahydro-1H,5H-imidazo[1,2-a]thieno[3′,2′:4,5]pyrrolo[1,2-d]pyrazine-1-carboxamide]",> 10000 nM
19,"COc1ccc(C23Cn4c(cc5occc54)C(=O)N2CCN3C(=O)c2conc2C)cc1 (stereo not drawn) [Compound 3, 5a-(4-methoxyphenyl)-6-[(3-methyl-1,2-oxazol-4-yl)carbonyl]-5a,6,7,8-tetrahydro-5H,10H-furo[2′,3′:4,5]pyrrolo[1,2-a]imidazo[1,2-d]pyrazin-10-one]",50 to 99 nM
20,"Cc1ocnc1C(=O)N1CCN2C(=O)c3cc4ccsc4n3CC12c1ccc(F)cc1 (stereo not drawn) [Compound 21, 11a-(4-fluorophenyl)-1-[(5-methyl-1,3-oxazol-4-yl)carbonyl]-2,3,11,11a-tetrahydro-1H,5H-imidazo[1,2-a]thieno[3′,2′:4,5]pyrrolo[1,2-d]pyrazin-5-one]",100 to 499 nM
21,"COc1ccc(C23Cn4c(cc5sccc54)C(=O)N2CCN3C(=O)c2conc2C)cc1 (stereo not drawn) [Compound 5, 5a-(4-methoxyphenyl)-6-[(3-methyl-1,2-oxazol-4-yl)carbonyl]-5a,6,7,8-tetrahydro-5H,10H-imidazo[1,2-a]thieno[2′,3′:4,5]pyrrolo[1,2-d]pyrazin-10-one]",100 to 499 nM
22,"COc1ccc(C23Cn4c(cc5ccccc54)C(=O)N2CCN3C(=O)c2conc2C)cc1 (stereo not drawn) [Compound 4, 12a-(4-methoxyphenyl)-1-[(3-methyl-1,2-oxazol-4-yl)carbonyl]-2,3,12,12a-tetrahydro-1H,5H-imidazo[1′,2′:4,5]pyrazino[1,2-a]indol-5-one]",≤ 49 nM
23,"O=C(c1ccco1)N1CCN2C(=O)c3cc4ccsc4n3CC12c1ccc(F)cc1 (stereo not drawn) [Compound 15, 11a-(4-fluorophenyl)-1-(furan-2-ylcarbonyl)-2,3,11,11a-tetrahydro-1H,5H-imidazo[1,2-a]thieno[3′,2′:4,5]pyrrolo[1,2-d]pyrazin-5-one]",> 10000 nM
24,"COc1ccc(C23Cn4c(cc5cccnc54)C(=O)N2CCN3C(=O)c2conc2C)cc1 (stereo not drawn) [Compound 8, 12a-(4-methoxyphenyl)-1-[(3-methyl-1,2-oxazol-4-yl)carbonyl]-2,3,12,12a-tetrahydro-1H,5H-imidazo[1,2-a]pyrido[3′,2′:4,5]pyrrolo[1,2-d]pyrazin-5-one]",≤ 49 nM
25,"O=C1c2cc3ccsc3n2CC2(c3ccc(F)cc3)N1CCN2S(=O)(=O)c1ccc([N+](=O)[O-])cc1 (stereo not drawn) [Compound 27, 11a-(4-fluorophenyl)-1-[(4-nitrophenyl)sulfonyl]-2,3,11,11a-tetrahydro-1H,5H-imidazo[1,2-a]thieno[3′,2′:4,5]pyrrolo[1,2-d]pyrazin-5-one]",500 to 10000 nM
26,"Cc1nocc1C(=O)N1CCN2C(=O)c3cc4ccsc4n3CC12c1ccc(F)cc1 (stereo not drawn) [Compound 6, 11a-(4-fluorophenyl)-1-[(3-methyl-1,2-oxazol-4-yl)carbonyl]-2,3,11,11a-tetrahydro-1H,5H-imidazo[1,2-a]thieno[3′,2′:4,5]pyrrolo[1,2-d]pyrazin-5-one]",≤ 49 nM

# Reference: patent US9359377B2, “Substituted imidazo[1,2-a]imidazo[4′,5′:4,5]pyrrolo[1,2-d]pyrazines for treating respiratory syncytial virus infections” (Biota Scientific Management Pty Ltd., priority 2011, dated 2016)
